Earlier results, collected in US11413265B2, “Formulations and compositions of Cabazitaxel” (Zhuhai Beihai Biotech Co., Ltd., priority 2018, dated 2022).

Tests used:
human serum albumin = human serum albumin (Homo sapiens, UniProt P02768); conditions: in vitro
human serum proteins = conditions: in vitro

Sequence of human serum albumin (P02768 25-609): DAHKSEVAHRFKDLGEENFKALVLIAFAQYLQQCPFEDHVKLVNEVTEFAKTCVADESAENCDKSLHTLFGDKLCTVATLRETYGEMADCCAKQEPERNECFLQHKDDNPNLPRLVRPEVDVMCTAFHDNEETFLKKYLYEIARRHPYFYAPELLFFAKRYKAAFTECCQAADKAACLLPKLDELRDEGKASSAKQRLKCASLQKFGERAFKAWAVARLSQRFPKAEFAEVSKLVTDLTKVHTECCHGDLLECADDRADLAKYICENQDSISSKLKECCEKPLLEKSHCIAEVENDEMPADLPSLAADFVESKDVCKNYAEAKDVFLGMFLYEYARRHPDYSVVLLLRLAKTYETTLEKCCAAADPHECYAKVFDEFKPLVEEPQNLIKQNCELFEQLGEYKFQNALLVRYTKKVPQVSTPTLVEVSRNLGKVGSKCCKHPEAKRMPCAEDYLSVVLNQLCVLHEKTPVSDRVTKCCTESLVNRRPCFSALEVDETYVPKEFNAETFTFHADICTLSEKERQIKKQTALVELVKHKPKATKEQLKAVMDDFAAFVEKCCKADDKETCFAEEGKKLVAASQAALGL

Q: Which “bound to human serum albumin” value (human serum albumin) does the source give for `CO[C@H]1C(=O)[C@]2(C)[C@@H](OC)C[C@H]3OC[C@@]3(OC(C)=O)[C@H]2[C@H](OC(=O)c2ccccc2)[C@]2(O)C[C@H](OC(=O)[C@H](O)[C@@H](NC(=O)OC(C)(C)C)c3ccccc3)C(C)=C1C2(C)C` [Cabazitaxel, cabazitaxel] here?
A: The value was 82%.

Q: And the “concentration up to which binding to human serum proteins was not saturable” value (human serum proteins)?
A: The value was > 50,000 ng/mL.

Q: And the solubility in alcohol (alcohol)?
A: The solubility in alcohol was “soluble”.

Q: And the solubility in water (water)?
A: Its solubility in water is “practically insoluble”.
